Paper PMC9304322, “Targeting retinoic acid receptor alpha-corepressor interaction activates chaperone-mediated autophagy and protects against retinal degeneration” (Nature Communications, 2022)

Columns and labels:
NIH3T3 cells = experiment: Microarray transcriptional changes; assay type: cell-based, mouse; design: Ratio of expression relative to untreated cells, Crtam (NM_019465) / Ratio of expression relative to untreated cells, 4930594C11Rik (NR_024017) / Ratio of expression relative to untreated cells, Non-coding chr6:36765550-36793825_F / Ratio of expression relative to untreated cells, Anti-sense ENSMUST00000097448 / Ratio of expression relative to untreated cells, Non-coding chr1:64232564-64349617_R / Ratio of expression relative to untreated cells, Foxa2 (NM_010446) / Ratio of expression relative to untreated cells, Non-coding chr15:83266264-83294664_F / Ratio of expression relative to untreated cells, Nqo1 (NM_008706) / Ratio of expression relative to untreated cells, Gsta4 (NM_010357) / Ratio of expression relative to untreated cells, E330014E10Rik (NM_001122668) / Ratio of expression relative to untreated cells, AU017674 (CK334688) / Ratio of expression relative to untreated cells, Defb12 (NM_152802) / Ratio of expression relative to untreated cells, Non-coding chr1:138570107-138632310_F / Ratio of expression relative to untreated cells, Non-coding chr16:39984031-40081556_R / Ratio of expression relative to untreated cells, Gm5106 (XR_168418) / Ratio of expression relative to untreated cells, Ushbp1 (NM_181418) / Ratio of expression relative to untreated cells, Non-coding chr11:70196232-70203307_R / Ratio of expression relative to untreated cells, Eno4 (NM_178689) / Ratio of expression relative to untreated cells, Non-coding chr13:64044376-64045368_R / Ratio of expression relative to untreated cells, Dsg4 (AY170623) / Ratio of expression relative to untreated cells, Stx2 (NM_007941) / Ratio of expression relative to untreated cells, Non-coding chr12:52944867-52971992_R / Ratio of expression relative to untreated cells, Htr1b (NM_010482) / Ratio of expression relative to untreated cells, Non-coding chr16:44717531-44724206_F / Ratio of expression relative to untreated cells, Non-coding chr5:54053328-54053870_F: unit not given here; conditions: 20μM for 24 h; for Ratio of expression relative to untreated cells, 4930594C11Rik (NR_024017) / Ratio of expression relative to untreated cells, Anti-sense ENSMUST00000097448 / Ratio of expression relative to untreated cells, Crtam (NM_019465) / Ratio of expression relative to untreated cells, Defb12 (NM_152802) / Ratio of expression relative to untreated cells, Dsg4 (AY170623) / Ratio of expression relative to untreated cells, Eno4 (NM_178689) / Ratio of expression relative to untreated cells, Foxa2 (NM_010446) / Ratio of expression relative to untreated cells, Gm5106 (XR_168418) / Ratio of expression relative to untreated cells, Htr1b (NM_010482) / Ratio of expression relative to untreated cells, Non-coding chr1:64232564-64349617_R / Ratio of expression relative to untreated cells, Non-coding chr5:54053328-54053870_F / Ratio of expression relative to untreated cells, Non-coding chr6:36765550-36793825_F / Ratio of expression relative to untreated cells, Non-coding chr11:70196232-70203307_R / Ratio of expression relative to untreated cells, Non-coding chr12:52944867-52971992_R / Ratio of expression relative to untreated cells, Non-coding chr13:64044376-64045368_R / Ratio of expression relative to untreated cells, Non-coding chr15:83266264-83294664_F / Ratio of expression relative to untreated cells, Non-coding chr16:39984031-40081556_R / Ratio of expression relative to untreated cells, Non-coding chr16:44717531-44724206_F / Ratio of expression relative to untreated cells, Ushbp1 (NM_181418) / Ratio of expression relative to untreated cells, AU017674 (CK334688) / Ratio of expression relative to untreated cells, E330014E10Rik (NM_001122668) / Ratio of expression relative to untreated cells, Gsta4 (NM_010357) / Ratio of expression relative to untreated cells, Non-coding chr1:138570107-138632310_F / Ratio of expression relative to untreated cells, Nqo1 (NM_008706): NIH3T3; for Ratio of expression relative to untreated cells, 4930594C11Rik (NR_024017) / Ratio of expression relative to untreated cells, Anti-sense ENSMUST00000097448 / Ratio of expression relative to untreated cells, Crtam (NM_019465) / Ratio of expression relative to untreated cells, Defb12 (NM_152802) / Ratio of expression relative to untreated cells, Dsg4 (AY170623) / Ratio of expression relative to untreated cells, Eno4 (NM_178689) / Ratio of expression relative to untreated cells, Foxa2 (NM_010446) / Ratio of expression relative to untreated cells, Gm5106 (XR_168418) / Ratio of expression relative to untreated cells, Htr1b (NM_010482) / Ratio of expression relative to untreated cells, Non-coding chr1:64232564-64349617_R / Ratio of expression relative to untreated cells, Non-coding chr5:54053328-54053870_F / Ratio of expression relative to untreated cells, Non-coding chr6:36765550-36793825_F / Ratio of expression relative to untreated cells, Non-coding chr11:70196232-70203307_R / Ratio of expression relative to untreated cells, Non-coding chr12:52944867-52971992_R / Ratio of expression relative to untreated cells, Non-coding chr13:64044376-64045368_R / Ratio of expression relative to untreated cells, Non-coding chr15:83266264-83294664_F / Ratio of expression relative to untreated cells, Non-coding chr16:39984031-40081556_R / Ratio of expression relative to untreated cells, Non-coding chr16:44717531-44724206_F / Ratio of expression relative to untreated cells, Ushbp1 (NM_181418): direction Down; for Ratio of expression relative to untreated cells, AU017674 (CK334688) / Ratio of expression relative to untreated cells, E330014E10Rik (NM_001122668) / Ratio of expression relative to untreated cells, Gsta4 (NM_010357) / Ratio of expression relative to untreated cells, Non-coding chr1:138570107-138632310_F / Ratio of expression relative to untreated cells, Nqo1 (NM_008706): direction Up
Procedure: Total RNA of the treated cells was extracted using TRIzol (Invitrogen) and purified with RNeasy chromatography (Qiagen). Cy3-labeled RNA (0.6 μg) from each condition was hybridized to Agilent Mouse 8x60K. Data were processed using the oligo package and normalized using Robust Multiarray Average (RMA) method. […] Pathway analysis was performed using the STRING database ([…]).

[1] = test system: retinal explants of rd10 mice; experiment: Ex-vivo retinal cultures of rd10 mice; design: species or system mouse; conditions: rd10 P21 to P24; 40 μM for 72 h; vs contralateral untreated explant
Procedure: After removal of the eyes, all non-relevant tissue was removed from the neuroretina, which was then placed, photoreceptors upside down, in Millicell support inserts (Millipore, #PICM0RG50) and maintained in DMEM with 1 μM insulin (SIGMA, #I2643) for 72 h at 37 °C in a 5% CO2 atmosphere. Where indicated, retinas were incubated with 40 μM CA77 for the indicated times. The retinas were then washed twice with phosphate-buffered saline (PBS), fixed overnight in 4% paraformaldehyde (w/v) in 0.1 M phosphate buffer (pH 7.4) and processed. Retinas were separated along dorsoventral axis and nasal half was used for whole-mounts and temporal half was used for 12 µm cryosections.
Immunostainings were performed overnight at 4 °C using antibodies against visual (rod) arrestin and cone arrestin after initial permeabilization with 2% Triton X-100 for 1 h at RT and subsequent incubation with blocking solution (10% normal goat serum, 0.25% Triton X-100 in PBS). The retinas were then washed and incubated for 1 h with Alexa 568 or 647 (Invitrogen, #A-11004, #A32728), counterstained with DAPI (1 µg/mL, Sigma, # D9542), mounted in Fluoromount-G (Cultek, #100-01), and visualized by confocal microscopy in an SP5 confocal microscope (TCS SP5; Leica Microsystems). […]

Structure (SMILES) | Ratio of expression relative to untreated cells, Stx2 (NM_007941) (NIH3T3 cells) | Ratio of expression relative to untreated cells, 4930594C11Rik (NR_024017) (NIH3T3 cells) | Ratio of expression relative to untreated cells, Anti-sense ENSMUST00000097448 (NIH3T3 cells) | Ratio of expression relative to untreated cells, Crtam (NM_019465) (NIH3T3 cells) | Ratio of expression relative to untreated cells, Defb12 (NM_152802) (NIH3T3 cells) | Ratio of expression relative to untreated cells, Dsg4 (AY170623) (NIH3T3 cells) | Ratio of expression relative to untreated cells, Eno4 (NM_178689) (NIH3T3 cells) | Ratio of expression relative to untreated cells, Foxa2 (NM_010446) (NIH3T3 cells) | Ratio of expression relative to untreated cells, Gm5106 (XR_168418) (NIH3T3 cells) | Ratio of expression relative to untreated cells, Htr1b (NM_010482) (NIH3T3 cells) | Ratio of expression relative to untreated cells, Non-coding chr1:64232564-64349617_R (NIH3T3 cells) | Ratio of expression relative to untreated cells, Non-coding chr5:54053328-54053870_F (NIH3T3 cells) | Ratio of expression relative to untreated cells, Non-coding chr6:36765550-36793825_F (NIH3T3 cells) | Ratio of expression relative to untreated cells, Non-coding chr11:70196232-70203307_R (NIH3T3 cells) | Ratio of expression relative to untreated cells, Non-coding chr12:52944867-52971992_R (NIH3T3 cells) | Ratio of expression relative to untreated cells, Non-coding chr13:64044376-64045368_R (NIH3T3 cells) | Ratio of expression relative to untreated cells, Non-coding chr15:83266264-83294664_F (NIH3T3 cells) | Ratio of expression relative to untreated cells, Non-coding chr16:39984031-40081556_R (NIH3T3 cells) | Ratio of expression relative to untreated cells, Non-coding chr16:44717531-44724206_F (NIH3T3 cells) | Ratio of expression relative to untreated cells, Ushbp1 (NM_181418) (NIH3T3 cells) | other results
Clc1ccc2c(c1)OCC(c1ccc(-c3ccccc3)cc1)=N2 [CA39] | 0.118 | 0.02758 | 0.03251 | 0.02443 | 0.01369 | 0.04187 | 0.1079 | 0.05303 | 0.2892 | 0.02191 | 0.044 | 0.08567 | 0.01728 | 0.1333 | 0.02965 | 0.157 | 0.07415 | 0.3908 | 0.01733 | 0.1898 | Ratio of expression relative to untreated cells, AU017674 (CK334688) (NIH3T3 cells): 18.0101; Ratio of expression relative to untreated cells, E330014E10Rik (NM_001122668) (NIH3T3 cells): 1.584; Ratio of expression relative to untreated cells, Gsta4 (NM_010357) (NIH3T3 cells): 2.331; Ratio of expression relative to untreated cells, Non-coding chr1:138570107-138632310_F (NIH3T3 cells): 7.863; Ratio of expression relative to untreated cells, Nqo1 (NM_008706) (NIH3T3 cells): 1.3
CC(=O)Nc1ccc(C2=Nc3ccc(Cl)cc3OC2)cc1 [CA77] | 0.09232 | 0.0118 | 0.02606 | 0.02383 | 0.01656 | 0.02136 | 0.2317 | 0.03773 | 0.09934 | 0.04553 | 0.03926 | 0.08612 | 0.01829 | 0.1429 | 0.03376 | 0.1362 | 0.06682 | 0.07815 | 0.03891 | 0.1648 | cones (cone arrestin-positive) in retinal explants [1]: higher preservation for cones; number of rods (rod arrestin-positive) in retinal explants [1]: significant preservation of the number of rods; Ratio of expression relative to untreated cells, AU017674 (CK334688) (NIH3T3 cells): 22.5451; Ratio of expression relative to untreated cells, E330014E10Rik (NM_001122668) (NIH3T3 cells): 33.8974; Ratio of expression relative to untreated cells, Gsta4 (NM_010357) (NIH3T3 cells): 18.7705; Ratio of expression relative to untreated cells, Non-coding chr1:138570107-138632310_F (NIH3T3 cells): 6.319; Ratio of expression relative to untreated cells, Nqo1 (NM_008706) (NIH3T3 cells): 4.968
